Reference: patent US20210214758A1, “METHODS AND TOOLS FOR DETERMINING CLONAL RELATEDNESS AND PREDICTING CLONAL TRAITS” (priority 2018, published 2021)

Tested on: Klebsiella isolates
Test: Antibiotic susceptibility of Klebsiella clinical isolates per 7-SNP clonotype (Lookup Table 1; disk diffusion)
Assay type: cell-based, Klebsiella spp.
Description: In further embodiments, the Lookup Table is Lookup Table 1. The information contained in Lookup Table 1 below was obtained from urine specimens from patients with Klebsiella infections from several clinics within different regions of the United States. CT=clonotypes determined using a 7-SNP combination: phoE54; rpoB130; infB279; mdh315; phoE336; phoE354; and mdh429.
Next, antibiotic resistance was determined for all 387 Klebsiella isolates in the discovery set. Antibiotic testing was carried out according to the standard disk diffusion method as described in the Clinical and Laboratory Standards Institute (M100 Performance Standards for Antimicrobial Susceptibility Testing, 27th Edition, 2017). […] Since almost all Klebsiella isolates are known to be resistant to AMP and sensitive to IMI, TET is not used for treatment of urinary tract infections, and ESBL production is partially reflected in resistance to CTR, these antibiotics were not included for further analysis.
To aid in clinical decision-making and to translate clonotype information to treatment selection, Lookup Table 1 was generated. […] The information contained in Lookup Table 1 was obtained from urine specimens from patients with Klebsiella infections from several clinics within different regions of the United States. Indications of allowance or non-recommendation were determined based on a 20% resistance threshold to the indicated antibiotic; i.e., the antibiotic is recommended when more than 80% of the tested isolates within the indicated clonotype were susceptible to the indicated antibiotic, and was cautioned against when less than 80% of the isolates were susceptible to the antibiotic.

trimethoprim/sulfamethoxazole [TS]
susceptibility, % (CT 000): 87% | susceptibility, % (CT 001): 100% | susceptibility, % (CT 010): 100% | susceptibility, % (CT 011): 91% | susceptibility, % (CT 031): 67% | susceptibility, % (CT 040): 25% | susceptibility, % (CT 050): 86% | susceptibility, % (CT 051): 85% | susceptibility, % (CT 071): 60% | susceptibility, % (CT 100): 100% | susceptibility, % (CT 110): 100% | susceptibility, % (CT 111): 90% | susceptibility, % (CT 130): 92% | susceptibility, % (CT 131): 72% | susceptibility, % (CT 141): 100% | susceptibility, % (CT 150): 73% | susceptibility, % (CT 151): 65% | susceptibility, % (CT 160): 0% | susceptibility, % (CT 170): 83% | susceptibility, % (CT 171): 92% | susceptibility, % (CT 200): 77% | susceptibility, % (CT 201): 79% | susceptibility, % (CT 210): 95% | susceptibility, % (CT 211): 91% | susceptibility, % (CT 230): 100% | susceptibility, % (CT 231): 100% | susceptibility, % (CT 240): 100% | susceptibility, % (CT 241): 100% | susceptibility, % (CT 250): 80% | susceptibility, % (CT 251): 80% | susceptibility, % (CT 271): 75% | susceptibility, % (CT 300): 0% | susceptibility, % (CT 301): 76% | susceptibility, % (CT 310): 100% | susceptibility, % (CT 311): 65% | susceptibility, % (CT 330): 55% | susceptibility, % (CT 331): 76% | susceptibility, % (CT 350): 74% | susceptibility, % (CT 351): 84% | susceptibility, % (CT 370): 75% | susceptibility, % (CT 371): 100% | susceptibility, % (CT 411): 100% | susceptibility, % (CT 450): 83% | susceptibility, % (CT 451): 100% | susceptibility, % (CT 510): 100% | susceptibility, % (CT 511): 0% | susceptibility, % (CT 530): 45% | susceptibility, % (CT 531): 67% | susceptibility, % (CT 550): 79% | susceptibility, % (CT 551): 52% | susceptibility, % (CT 570): 75% | susceptibility, % (CT 571): 100% | susceptibility, % (CT 611): 100% | susceptibility, % (CT 630): 100% | susceptibility, % (CT 650): 83% | susceptibility, % (CT 651): 85% | susceptibility, % (CT 670): 100% | susceptibility, % (CT 710): 67% | susceptibility, % (CT 730): 45% | susceptibility, % (CT 731): 82% | susceptibility, % (CT 750): 65% | susceptibility, % (CT 751): 100% | susceptibility, % (CT 771): 86% | susceptibility, % (CT Any Klebsiella spp.): 80%

amoxicillin/clavulanate [AMC]
susceptibility, % (CT 000): 92% | susceptibility, % (CT 001): 100% | susceptibility, % (CT 010): 100% | susceptibility, % (CT 011): 91% | susceptibility, % (CT 031): 67% | susceptibility, % (CT 040): 75% | susceptibility, % (CT 050): 90% | susceptibility, % (CT 051): 90% | susceptibility, % (CT 071): 80% | susceptibility, % (CT 100): 86% | susceptibility, % (CT 110): 100% | susceptibility, % (CT 111): 90% | susceptibility, % (CT 130): 98% | susceptibility, % (CT 131): 69% | susceptibility, % (CT 141): 100% | susceptibility, % (CT 150): 87% | susceptibility, % (CT 151): 78% | susceptibility, % (CT 160): 100% | susceptibility, % (CT 170): 96% | susceptibility, % (CT 171): 92% | susceptibility, % (CT 200): 69% | susceptibility, % (CT 201): 89% | susceptibility, % (CT 210): 71% | susceptibility, % (CT 211): 90% | susceptibility, % (CT 230): 100% | susceptibility, % (CT 231): 100% | susceptibility, % (CT 240): 0% | susceptibility, % (CT 241): 100% | susceptibility, % (CT 250): 100% | susceptibility, % (CT 251): 93% | susceptibility, % (CT 271): 96% | susceptibility, % (CT 300): 100% | susceptibility, % (CT 301): 96% | susceptibility, % (CT 310): 80% | susceptibility, % (CT 311): 80% | susceptibility, % (CT 330): 95% | susceptibility, % (CT 331): 86% | susceptibility, % (CT 350): 83% | susceptibility, % (CT 351): 92% | susceptibility, % (CT 370): 100% | susceptibility, % (CT 371): 75% | susceptibility, % (CT 411): 100% | susceptibility, % (CT 450): 100% | susceptibility, % (CT 451): 100% | susceptibility, % (CT 510): 100% | susceptibility, % (CT 511): 100% | susceptibility, % (CT 530): 93% | susceptibility, % (CT 531): 83% | susceptibility, % (CT 550): 86% | susceptibility, % (CT 551): 50% | susceptibility, % (CT 570): 75% | susceptibility, % (CT 571): 100% | susceptibility, % (CT 611): 100% | susceptibility, % (CT 630): 100% | susceptibility, % (CT 650): 91% | susceptibility, % (CT 651): 92% | susceptibility, % (CT 670): 100% | susceptibility, % (CT 710): 100% | susceptibility, % (CT 730): 60% | susceptibility, % (CT 731): 98% | susceptibility, % (CT 750): 95% | susceptibility, % (CT 751): 100% | susceptibility, % (CT 771): 100% | susceptibility, % (CT Any Klebsiella spp.): 87%
